{"source": "patent US4657898A", "about": "“N^6 -substituted adenosines and method of use” (Warner-Lambert Company, priority 1985, dated 1987)", "key": {"[1]": {"assay": "Mouse Activity and Screen Test Procedure (MAST): screen test failure (ST)", "conditions": "lowest dose at which an A rating is achieved, screen test; i.p., mouse", "method": "Nine unfasted Swiss-Webster male mice weighing 20-30 g are equally divided into three groups for each drug dose to be tested. That is, data for each dose level was generated by three separate groups of three mice each.\nA minimum of three dose levels (10, 30, and 100 mg/kg) are tested for each drug. Treatments are administered intraperitoneally one hour prior to testing. All dosages are calculated as parent compound and given in volumes of 10 ml/kg. Compounds are dissolved or suspended in 0.2% Methocel. Control animals are injected with Methocel.\nTesting: A two part testing procedure is started one hour postinjection. First, the screen test (ST) is performed (see Pharmac. Biochem. Behav. 6, 351-353, 1977). Briefly this test consists of placing mice on individual wire screens which are then rotated 180 degrees at the start of a 60 second observation period. The number of mice falling off the inverted screen is recorded.\nData: The data obtained from the screen test are expressed as percent of mice falling off the screen. Data derived from locomotor activity of drug treated mice are compared to the activity of vehicle treated animals and are expressed as percent inhibition of spontaneous locomotion. All percentages reported for inhibition of locomotion (LI) are based upon data accumulated for one hour. Both phases of testing are graded: A=60-100%; C=31-59%; and N=0-30%. An overall dose rating is obtained by the following criteria:\nLAD refers to the lowest dose at which an A rating is achieved. […] The compounds are identified in the Examples."}, "[2]": {"assay": "Antihypertensive evaluation (AHP3), aortic blood pressure and heart rate in conscious rats", "format": "in vivo", "conditions": "conscious rat", "from_the_text": "[…] EVALUATION (AHP3)\nThis test procedure is described in the following paragraphs.\nA Method for the Direct Monitoring of Aortic Blood Pressure and Heart Rate from Conscious Rats\nThe continuous monitoring of pulsatile blood pressure (BP) from unrestrained conscious rats surgically equipped with polyethylene cannulas was accomplished by means of a computer assisted data capture scheme (CADCS). The basic elements of the methodology are the cannulation procedure and the CADCS.\nCannulation Procedure: Rats were anesthetized with Telazol (1:1 tiletamine HCl and zolazepam HCl); 20-40 mg/kg IM and the descending aorta exposed via a midline incision. Cannulas fabricated from polyethylene tubing were inserted into the aorta via an undersized puncture hole below the renal arteries. The puncture hole was made by a 23G disposable needle with a section of the aorta clamped off above and below the puncture site. The cannulas, consisting of a PE100 (0.86 mm ID) body and a PE50 (0.5mm ID) tip, were attached to a trocar, inserted through the psoas muscle, and passed subcutaneously along the midline of the back and externalized between the ears. The cannulas were anchored to the psoas muscle and between the scalulae (3-0 green braided suture). The midline incision was closed in two steps (muscle first, skin second) using continuous over-and over sutures (4-0 chronic). Each rat was then given penicillin 30,000 units subcutaneously (Penicillin G Procaine Sterile Suspension).\nThe rats were fitted with a harness-spring-swivel assembly designed to protect the cannula and to provide the rat relative freedom of movement. The harnesses were fabricated from nylon hook and loop tape cemented to a metal plate to which spring wires (18-8 stainless steel), were attached to brass swivels. Each polyethylene cannula was channeled through a spring and connected through a swivel to a pressure transducer (Model P23Gb; Statham Instruments; Hato Rey, Puerto Rico) and an infusion pump (Sage model 234-7; Orion Research, Cambridge, MA) by means of PE100 tubing. While on test, each rat received a continuous slow infusion of heparinized saline solution (approximately […] or 40 units of heparin per 24 hour period) to prevent clot formation. Additional \"flushes\" of the cannula with heparinized saline were carried out when the aortic pulse pressure (systolic minus diastolic) was less than 25 mm Hg.\nCADCS: The pulsatile blood pressure and heart rate of each of 32 rats was monitored every minute by means of two in-laboratory microcomputers communicating directly with a data concentrator computer. The data were first stored on the data concentrator disk and then transferred to a magnetic tape for analysis and report generation by the main research computer. The overall scheme involved modulating the primary signal from the pressure transducer, generating the primary data set of the one-minute values for systolic, diastolic, and mean blood pressures and heart rate by the in-lab microcomputer and the storage, analysis, and report generation by the main reserach computer.\nThe transducers were connected to analog signal conditioning modules. The modules provided a regulated excitation voltage for the transducers, amplification as required to interface the microprocessors and an active low pass filter to compensate for the pressure wave form distortion produced by the flexible, fluid filled, narrow cannula. The distortion was 22-26 Hz and this provided a reliable estimate of both systolic and diastolic blood pressure.\nThe microcomputers (one for each of two groups of 16 rats) were connected to the input components through the module interface units, an analog-to-digital converter for the pressure wave form signal and the digital inputs for the dose and event marker switches. The microcomputer controlled the sequential acquisition of data from the modular interface units through an internal synchronous time-of-day clock/time base generator. […]"}, "[3]": {"assay": "Mouse Activity and Screen Test Procedure (MAST): inhibition of locomotion (LI)", "format": "in vivo, mouse (Swiss-Webster)", "method": "Treatments are administered intraperitoneally one hour prior to testing. […] Compounds are dissolved or suspended in 0.2% Methocel. Control animals are injected with Methocel.\nImmediately following the screen test, the final phase of testing is initiated by placing each group of three mice in one actophotometer (Life Sciences, 22, 1067-1076, 1978). The actophotometer consists of a cylindrical chamber whose center is occupied by another cylinder which contains the illumination for six photocells located on the perimeter of the chamber. Six light-beam interruptions equal one count. Locomotor activity is recorded by computer at ten minute intervals for 60 minutes.\nThe compounds are identified in the Examples."}, "[4]": {"biological_target": "T1, adenosine A1 receptor (Rattus norvegicus, UniProt P25099)", "T1 construct": "Whole brain minus cerebellum and brainstem from male Long Evans rats; from tissue; host or cells: rat whole brain minus cerebellum and brainstem, membranes (male Long Evans)", "T1 sequence (P25099 1-326)": "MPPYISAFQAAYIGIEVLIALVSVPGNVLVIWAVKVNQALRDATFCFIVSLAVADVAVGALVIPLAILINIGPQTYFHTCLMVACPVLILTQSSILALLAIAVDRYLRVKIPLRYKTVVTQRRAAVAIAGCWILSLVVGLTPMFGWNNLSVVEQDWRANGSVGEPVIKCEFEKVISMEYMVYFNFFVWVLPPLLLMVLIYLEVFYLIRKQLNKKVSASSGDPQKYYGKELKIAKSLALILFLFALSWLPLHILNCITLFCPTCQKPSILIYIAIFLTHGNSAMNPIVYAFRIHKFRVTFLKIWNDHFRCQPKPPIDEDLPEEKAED", "assay": "Adenosine Receptor Binding--A1 Receptor Affinity (RBA1), [3H]-CHA", "set-up": "species or system rat (male Long Evans)", "method": "Adenosine Receptor Binding--A1 Receptor Affinity (RBA1)\nWhole brain minus cerebellum and brainstem from male Long Evans rats (150-200 g) was homogenized in 30 volumes of ice-cold 0.05M Tris-HCl buffer pH 7.7 using a Brinkman Polytron PT-10, (setting number 6 for 20 seconds) and centrifuged for ten minutes at 20,000 xg (Sorvall RC-2), 4° C. The supernatant was discarded, and the pellet was resuspended and centrifuged as before. The pellet was resuspended in 20 ml Tris-HCl buffer containing two International Units/ml of adenosine deaminase (Sigma type III from calf intestinal mucosa), incubated at 37° C. for 30 minutes, then subsequently at 0° C. for ten minutes. […]\nTissue homogenate (10 mg/ml) was incubated in 0.05M Tris-HCl buffer pH 7.7 containing 1.0 nM [^3 H]-N^6 -cyclohexyladenosine (^3 H]-CHA) with or without test agents in triplicate for one hour at 25° C. […] The radio-labeled ligand retained on the filter was measured by liquid scintillation spectrophotometry after shaking the filters for one hour or longer on a mechanical shaker in 10 ml of Beckman Ready-Solv HP scintillation cocktail.\nNonspecific binding was defined as the binding which occurred in the presence of 1 mM theophylline. […] The Scatchard plot was calculated by linear regression of the line obtained by plotting the amount of radioligand bound [formula] […]"}, "[5]": {"biological_target": "T2, adenosine A2 receptor (Rattus norvegicus, UniProt P30543)", "T2 construct": "5 mg original tissue weight of rat weight of rat striatal membranes; tissue Pel-Freez (Rogers, Ark.); host or cells: rat striatum, membranes (Sprague-Dawley; Long-Evans from Blue Spruce Farms gave essentially identical results)", "T2 sequence (P30543 whole entry)": "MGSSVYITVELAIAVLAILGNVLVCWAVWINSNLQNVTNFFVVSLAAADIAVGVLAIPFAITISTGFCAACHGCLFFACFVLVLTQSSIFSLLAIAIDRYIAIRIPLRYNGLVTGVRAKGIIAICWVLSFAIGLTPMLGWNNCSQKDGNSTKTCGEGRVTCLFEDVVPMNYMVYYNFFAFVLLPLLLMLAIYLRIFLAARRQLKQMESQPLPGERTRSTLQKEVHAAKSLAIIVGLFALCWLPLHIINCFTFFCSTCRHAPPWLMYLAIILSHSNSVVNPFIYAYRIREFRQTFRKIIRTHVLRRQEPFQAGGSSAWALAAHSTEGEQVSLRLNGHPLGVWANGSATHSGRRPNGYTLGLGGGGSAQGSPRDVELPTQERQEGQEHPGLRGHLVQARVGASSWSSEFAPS", "assay": "Adenosine Receptor Binding--A2 Receptor Affinity (RBA2), [3H]NECA", "set-up": "species or system rat (Sprague-Dawley or Long-Evans, striatum)", "method": "Adenosine Receptor Binding--A2 Receptor Affinity (RBA2)\nBrains from 200-500 g mixed sex Sprague-Dawley rats were purchased from Pel-Freez (Rogers, Ark.). […] Brains were thawed and then kept on ice while the striata were dissected out. Striata were disrupted in 10 vol of ice-cold 50 mM Tris.HCl (pH 7.7 at 25° C., pH 8.26 at 5° C.) (Tris) for 30 seconds in a Polytron PT-10 (Brinkmann) at setting 5. The suspension was centrifuged at 50,000 xg for ten minutes, the supernatant discarded, the pellet resuspended in 10 vol ice-cold Tris as above, recentrifuged, resuspended at 1 g/5 ml, and stored in plastic vials at -70° C. […] When needed, tissue was thawed at room temperature, disrupted in a Polytron, and kept on ice until used. […]\nIncubations were terminated by filtration through 2.4 cm GF/B filters under reduced pressure. […] Filters were put in scintillation vials, 8 ml of Formula 947 scintillation fluid added, and the vials left overnight, shaken, and counted in a liquid scintillation counter at 40% efficiency.\nThe IC50 was calculated by weighted nonlinear least squares curve-fitting to the mass-action equation. […]\nWeighting factors were calculated under the assumption that the standard deviation was proportional to the predicted value of Y. Nonspecific binding was treated as a very large (infinite) concentration of drug in the computer analysis."}}, "data": [{"smiles": "OC[C@H]1O[C@@H](n2cnc3c(NCC(c4ccccc4)c4ccccc4)ncnc32)[C@H](O)[C@@H]1O", "note": "[Example 1, N^6-(2,2-Diphenylethyl)adenosine]", "values": [{"measurement": "MAST ST LAD", "setting": "[1]", "value": "> 100", "unit": "mg/kg"}, {"measurement": "HR.uparw. (change in heart rate)", "setting": "[2]; 1 mg/kg", "value": "< 20", "unit": "%"}, {"measurement": "Mμ.c..dwnarw. (change in MAP)", "setting": "[2]; 1 mg/kg", "value": 16, "unit": "%"}, {"measurement": "HR.uparw. (change in heart rate)", "setting": "[2]; 3 mg/kg", "value": "< 20", "unit": "%"}, {"measurement": "Mμ.c..dwnarw. (change in MAP)", "setting": "[2]; 3 mg/kg", "value": 20, "unit": "%"}, {"measurement": "HR.uparw. (change in heart rate)", "setting": "[2]; 10 mg/kg", "value": "< 20", "unit": "%"}, {"measurement": "Mμ.c..dwnarw. (change in MAP)", "setting": "[2]; 10 mg/kg", "value": 20, "unit": "%"}, {"measurement": "HR.uparw. (change in heart rate)", "setting": "[2]; 30 mg/kg", "value": "< 20", "unit": "%"}, {"measurement": "Mμ.c..dwnarw. (change in MAP)", "setting": "[2]; 30 mg/kg", "value": 35, "unit": "%"}, {"measurement": "Inhibition of mouse locomotor activity", "setting": "[3]; 10 mg/kg i.p.", "value": 92, "unit": "%"}, {"measurement": "Inhibition of mouse locomotor activity", "setting": "[3]; 30 mg/kg i.p.", "value": 93, "unit": "%"}, {"measurement": "Inhibition of mouse locomotor activity", "setting": "[3]; 100 mg/kg i.p.", "value": 94, "unit": "%"}]}, {"smiles": "O=[N+]([O-])c1ccc(C(CNc2ncnc3c2ncn3[C@@H]2O[C@H](CO)[C@@H](O)[C@H]2O)c2ccc([N+](=O)[O-])cc2)cc1", "note": "[Example 20]", "values": [{"measurement": "IC50", "setting": "[4]", "value": 0.229, "unit": "µM"}, {"measurement": "MAST ST LAD", "setting": "[1]", "value": "> 100", "unit": "mg/kg"}, {"measurement": "IC50", "setting": "[5]", "value": 0.559, "unit": "µM"}]}]}
